Among the data in a melting point compilation (Tetko et al.) are melting point values, retold here.

A word on the melting point: it is the temperature of the solid-liquid transition. Molecule `O=S(=O)(Cl)c1ccccc1C(F)(F)F` showed a melting point of 23 °C.
To `Cc1nccn1-c1cccc(C(=O)O)c1` belongs 182 to 184 °C.
In turn, `CCc1ccc(C(c2ccc(CC)o2)c2cc3c(cc2[N+](=O)[O-])OCCO3)o1` returned a melting point of 86 °C.
`NC(=S)Nc1cccc2ccccc12`: the melting point was 193 to 197 °C.
Turning to `COc1cc(/C=C/C(=O)c2ccc3ccccc3c2)cc(OC)c1OC`, the melting point was 119 °C.
To `CCSc1nnn[nH]1` belongs 88 to 89 °C; to `Cc1nc(-c2ccc(C(F)(F)F)cc2)sc1C(=O)CBr`, 82 to 84 °C; to `Cc1nc(C(F)(F)F)ccc1C(=O)O`, 137 to 142 °C.
To `Oc1ccccc1-c1ccccc1O` belongs 109 °C; to `C1OC1C1CO1` (stereo not given), 4 °C; to `CC(C)CC1=CC(=Cc2ccc(-c3ccc(Br)cc3)o2)C(=O)O1`, 107 to 108 °C.
`O=C(N=C=S)c1ccccc1` returned a melting point of 128 to 131 °C.
`COc1ccc(S(=O)(=O)Cl)c(OC)c1` showed a melting point of 72 °C.
Consider `N#Cc1c(Cl)cccc1Oc1ccc(S(=O)(=O)Cl)cc1`, for which the melting point is 137 to 139 °C.
In turn, `CCCCCCCCCCCCCCCC(C)=O` yielded a melting point of 48 °C.
Consider `O=C1c2ccccc2C(=O)C1(O)C1(O)C(=O)c2ccccc2C1=O`, for which the melting point was 252 °C.
Molecule `CC(C)(N)C(=O)O` came in with a melting point of 335 °C.
`C=CCCC(=C)C` came in with a melting point of -129 °C.
`CCCCCCCC(=O)OCC(COC(=O)CCCCCCC)OC(=O)CCCCCCC` showed a melting point of 10 °C.
With `Nc1ccccc1-c1cc2ccccc2[nH]1` the figure was 153 °C; with `C=CCc1cc(OC)c2c(c1OC)OCO2`, 29.5 °C.
In turn, `O=C(C=Cc1ccc(-c2ccc(Cl)cc2)o1)c1ccccc1` registered a melting point of 128 to 129 °C.
To `CC1(C(=O)O)CCCC2(C)c3cc(O)ccc3CCC12` (stereo not given) belongs 194 °C; to `COc1ccc(OCC(N)=S)cc1`, 113 to 114 °C; to `O=S(=O)(Cl)c1ccc(F)cc1Cl`, 30 °C.
`CSc1ccccc1C(=O)N(NC(=O)c1ccccc1)C(C)(C)C` displayed a melting point of 196 °C.
`OCc1cc(C(F)(F)F)ccc1Br` yielded a melting point of 72 °C.
With `Brc1ccc(-c2nc(-c3ccccc3)c(-c3ccccc3)[nH]2)cc1`, the melting point was in the range of 252 to 260 °C.
Take `Cc1nc(-c2ccc(Br)s2)no1`: the melting point lay within 54 to 55 °C.
Turning to `CCCCCCCNCCCCCCC`, the melting point came to 31.5 °C.
`CC(C)OC(=O)NC(C(=O)NC(C)c1nc2ccc(F)cc2s1)C(C)C` (stereo not given) gave a melting point of 153 °C.
To `C=CSC=C` belongs 20 °C; to `O=S(c1ccc(Cl)cc1)c1ccc(Cl)cc1`, 140 to 145 °C; to `CC1c2ccccc2C(=O)C1c1ccccc1` (stereo not given), 84 to 85.5 °C.
`CC12CCC(O)CC1CCC1C2CC(O)C2(C)C(C3=CC(=O)OC3)CCC12O` (stereo not given) gave a melting point of 222 °C.
With `O=C(CCl)Nc1ccc(Cl)cc1Cl` the figure was 105 to 108 °C; with `Cc1cccc(Cl)c1C=O`, 37 °C.
Turning to `Oc1cc(F)ccc1F`, the melting point was found to be 38 °C.
`Nc1cc(-c2ccccc2)no1` gave a melting point of 109 °C.
Turning to `CCOC(=O)c1c(-c2ccc(F)cc2)csc1N`, the melting point fell in the range of 92.5 to 95.5 °C.
Turning to `CC(=O)OCC12CC(OC(=O)CC(C)C)C(C)=CC1OC1C(O)C(OC(C)=O)C2(C)C12CO2` (stereo not given), the melting point came out at 152 °C.
As for `CCOC(=O)c1c(C=O)c(C)n(C2CC2)c1C`, the melting point is 75 to 80 °C.
To `O=Cc1ccc(Cn2cccn2)cc1` belongs 57 to 59 °C.
For the molecule `NC(=NO)c1cccnc1`, the melting point was 130 to 131 °C.
Molecule `CC(C)(Oc1ccc(C#N)cc1)C(=O)O` displayed a melting point of 117 to 120 °C.
